In PubChem BioAssay (NCI) one finds TGI and GI50 data, which are given here for 12 compounds.

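Step 1: Grow cells in 96-well plates. Step 2: Expose to compound for 48 hours at 5 concentrations. Step 3: Interpolate endpoints linearly; if unreached, use highest concentration. GI50: concentration for 50% inhibition of growth. TGI is the concentration that stops growth completely.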

Some test systems named below: BT-549 breast; DLD-1 colon; KM20L2 colon; DMS 114 small cell lung; DMS 273 small cell lung; HOP-18 NSCLC; SNB-78 CNS; P388/ADR leukemia; SN12K1 renal; M19-MEL melanoma; P388 leukemia; LXFL 529 NSCLC; RXF-631 renal.
Holding throughout (experiment): NCI tumour cell line growth inhibition, 48 h

The compound `CCC(C)C(=O)OC1C(=O)OC2CC3C(C)=CC(=O)C(O)C3(C)C3C4(O)OCC23C1C(C)C4O` (centres undefined) displayed a TGI in the assay with BT-549 breast of 0.094 µM.
For the compound `CCN(CC)C(=O)c1cc(OC(C)C)ccc1-c1c(C)cc(OC(C)C)c(OC)c1OC`, the TGI in the assay with DLD-1 colon, in the assay on KM20L2 colon, in the assay with DMS 114 small cell lung and in the assay with DMS 273 small cell lung was over 100 µM in each case.
Consider `Cc1[nH]c(=O)[nH]c(=O)c1/C=C/C(=O)NC(CO)CC(C)C` (centres undefined), for which the TGI in the assay on DLD-1 colon was over 375 µM; with HOP-18 NSCLC, over 375 µM; in the assay on KM20L2 colon, over 237 µM; with SNB-78 CNS it was over 375 µM; in the assay on P388/ADR leukemia it was over 149 µM; with DMS 114 small cell lung it was over 375 µM. The TGI in the assay with DMS 273 small cell lung, with SN12K1 renal, with M19-MEL melanoma and with P388 leukemia was over 375 µM throughout.
`NC(=O)NC1NC(=O)NC1=O` (centres undefined) yielded a TGI in the assay with BT-549 breast of over 100 µM.
Same read-out and setting: in the case of `C1=C(CC2=C[P+](c3ccccc3)(c3ccccc3)C=C(c3ccccc3)O2)OC(c2ccccc2)=C[P+]1(c1ccccc1)c1ccccc1` it was 0.309 µM; in that of `NC(CSS(=O)(=O)O)=NC1CC2CCC1C2` (centres undefined), over 100 µM; in that of `[O-][n+]1nc(N2CCOCC2)nc2ccccc21`, over 100 µM.
As to `CCC1CN2CCc3cc(OC)c(OC)cc3C2CC1CC1c2cc(OC)c(OC)cc2CCN1C(=O)C(N)Cc1ccccc1` (centres undefined), the TGI in the assay on LXFL 529 NSCLC was found to be 11.6 µM; in the assay with DLD-1 colon it was 14.1 µM; in the assay on KM20L2 colon, 3.52 µM; with DMS 273 small cell lung it was 5.22 µM; with RXF-631 renal it was 8.11 µM.
`N=C1C(=N)c2ccccc2-c2ccccc21.[Cl-].[Ru+2].c1cnc2c(c1)ccc1cccnc12.c1cnc2c(c1)ccc1cccnc12`: the GI50 in the assay on LXFL 529 NSCLC is 18.9 µM; with KM20L2 colon, 34.5 µM; in the assay with SNB-78 CNS it was 39.2 µM; in the assay with M19-MEL melanoma, 24.6 µM. The TGI was 55.7 µM in the assay on LXFL 529 NSCLC, 92.5 µM with KM20L2 colon, over 100 µM with SNB-78 CNS and over 100 µM with M19-MEL melanoma.
With `CC(C)=CCc1c(O)cc(O)c2c1OC(c1ccc(O)cc1)C(O)C2=O` (centres undefined), the TGI was 86.9 µM in the assay with LXFL 529 NSCLC; over 100 µM in the assay on DLD-1 colon; 43.4 µM with HOP-18 NSCLC; 32.5 µM with KM20L2 colon; 95.3 µM with SNB-78 CNS; over 100 µM in the assay with DMS 114 small cell lung. The values for the TGI in the assay on RXF-631 renal and in the assay on M19-MEL melanoma were 97.9 µM and over 100 µM, respectively.
For the compound `CC(=O)OC1C=C(C=O)C(O)(C=O)C2(C)CCCC(C)(C)C12` (centres undefined), the TGI in the assay on DLD-1 colon came out at 3.77 µM; in the assay with HOP-18 NSCLC, 1.58 µM; with KM20L2 colon it was 5.11 µM; in the assay with SNB-78 CNS, 5.44 µM; with DMS 114 small cell lung, 2.24 µM; in the assay with DMS 273 small cell lung it was 8.42 µM. Besides, the TGI with SN12K1 renal was 3.85 µM; in the assay on M19-MEL melanoma, 3.36 µM; in the assay with P388 leukemia it was 0.525 µM.
For `NCC(Cl)C(O)c1cnc(N)[nH]1` (centres undefined), the TGI is 29.2 µM in the assay with DLD-1 colon; 3.45 µM with HOP-18 NSCLC; 20.8 µM in the assay on KM20L2 colon; over 90.9 µM in the assay with SNB-78 CNS; 10.1 µM in the assay on P388/ADR leukemia; 40.7 µM with DMS 114 small cell lung. The TGI came out at 21.4 µM in the assay with DMS 273 small cell lung, 12.4 µM with SN12K1 renal, 29.8 µM in the assay on M19-MEL melanoma and 1.06 µM with P388 leukemia.
